Results published in PMC12445440 (Journal of Medical Virology, 2025).

What was measured:
ZIKV^Br [1] = assay: Virus yield reduction assay, ZIKV^Br on Huh-7 cells; type: cell-based, Zika virus
Huh-7 cells = assay: Cytotoxicity by WST-8, uninfected Huh-7 cells; conditions: read-out: CC50 Huh-7; Table S2, this paper data
[2] = Cytotoxicity by WST-8, uninfected Huh-7 cells; conditions: human
ZIKV NS5 [3] = assay: ZIKV protein synthesis by western blot (NS5), Huh-7 cells; type: cell-based, Zika virus; conditions: MOI 1, 1x, 5x, 10x EC50 (PS1097 0.6, 3, 6 μM; SOF 1.5, 7.5, 15 μM), 48 h
Experimental: (§1) Immunoblotting was performed as described.
(§2) Viral protein levels in cell lysates were analyzed by immunoblotting (Figure 3A,B), while virion release was assessed by quantifying ZIKV RNA in supernatants (Figure 3C).
(§3) Impact of treatment on ZIKV protein synthesis was evaluated on cell extracts analyzed by western blot using anti‐ ZIKV NS5, or anti‐GAPDH as a housekeeping control.

ZIKV NS5 [4] = assay: ZIKV protein synthesis by western blot (NS5), Vero E6 cells; type: cell-based, Zika virus; conditions: MOI 1, 1x, 5x, 10x EC50, 48 h
Experimental: as §1, §2, §3

ZIKV^Br [5] = assay: Time-of-addition (TOA) experiments, ZIKV^Br in Huh-7 cells; type: cell-based, Zika virus; conditions: harvest 48 h p.i.; for Time of addition giving the strongest inhibition: Huh-7, ZIKV^Br MOI 1, 10x EC50 (PS1097 6 μM, SOF 15 μM)
Experimental: PS1097 was added at 6 μM at 0, 2, 6, 12, 24, and 36 h p.i. SOF was used as a reference compound at 15 μM. At 48 h p.i., viral proteins were determined by western blot or by qRT‐PCR in cell lysates.
To elucidate the mechanism of PS1097 antiviral action, TOA experiments were conducted (Figure 4A). ZIKV^Br replication kinetics was assessed by quantifying viral genomic RNA and protein inside Huh‐7 cells at the times p.i. shown in Figure 4A. Viral RNA was detectable as of ~12 h p.i. (Figure 4D), whereas viral protein was visible after 24 h p.i. (Figure 4B,C). In parallel, cells were exposed to viral inoculum for 2 h. […] Then, they were harvested at 48 h p.i. Viral RNA in cells was measured by qRT‐PCR and inhibition relative to DMSO‐treated cells was calculated, as described by (Figure 4G).
(§4) Figure 4 (A) Experimental design of the Time Of Addition (TOA) assay for PS1097 and SOF. (B) ZIKV replication kinetics was determined on Huh‐7 cells infected at MOI 1for 2 h by western blot cell lysates prepared at the times shown. ZIKV NS5 and GAPDH were monitored with the antibodies in Supporting Information: Table S1. (C) Quantitative analysis of the results in B). (D) qRT‐PCR quantification of ZIKV RNA was carried out in ZIKV‐infected cells lysed at the times indicated on the x axis. (E) western blot of lysates of Huh‐7 cells harvested at 48 h p.i. where treatment with PS1097 or SOF was started as by A). (F) Quantitative analysis of the results in E). (G) ZIKV RNA was quantified in lysates of cells harvested at 48 h p.i. where treatment with PS1097 (red line) or SOF (green line) was started at the times p.i. indicated on the x axis. (H) Combined antiviral activity of PS1097 with SOF against ZIKV. Huh‐7 cells were infected with ZIKV then treated with PS1097 or SOF, alone or in combination, at the indicated concentrations. After 48 h p.i., supernatants were harvested and titrated for ZIKV yield. Two‐dimensional representation of dose–response interaction matrix was determined in synergyfinder.org. Color gradient indicates viral yield inhibition score (red‐highest score). […]

BVDV = conditions: previously published data; Na = no detected antiviral activity; ref [18]-[22] of main text, [3] of supplement for PS1086, PS1100, PS1101; cited from earlier work
Vero76 = system: Vero76; set-up: method as in earlier work; conditions: previously published data; ref [18]-[22] of main text, [3] of supplement for PS1086, PS1100, PS1101; cited from earlier work
ZIKV^Br [6] = assay: Virus yield assay, ZIKV^Br on VeroE6 cells; type: cell-based; conditions: Zika virus, Vero C1008, 95% CI in brackets
ZIKV^Br [7] = assay: Virus yield assay, ZIKV^Br on Vero TMPRSS cells; type: cell-based; conditions: Zika virus, 95% CI in brackets
ZIKV^Br [8] = assay: Virus yield assay, ZIKV^Br on HMC3 cells; type: cell-based; conditions: Zika virus
ZIKV^Br [9] = assay: Virus yield assay, ZIKV^Br on C6/36 cells; type: cell-based; conditions: Zika virus, 95% CI in brackets
ZIKV^Br [10] = assay: Virus yield assay, ZIKV^Br on A549 cells; type: cell-based; conditions: Zika virus, 95% CI in brackets
[11] = Cytotoxicity by WST-8, VeroE6 cells; type: cell-based; conditions: simian, 95% CI in brackets
Experimental: (§5) Cytotoxic/cytostatic effects were evaluated in uninfected cells by WST‐8 (Orangu, Cell Guidance Systems): 1 × 10^4 cells/well in a 96‐well plate were incubated in the presence of threefold serial dilutions of compounds, from 0.30 to 218 μM, for 48 h. Medium was replaced with 50 μL of 10% WST‐8, in DMEM, 2% FBS. Following a 1‐h incubation at 37°C, optical density (OD) in wells was measured at 450 nm using Varioskan LUX (ThermoFisher Scientific). CC50 was calculated using the formula: %viability=100×(ODcompound/ODuntreated control) where ODcompound and ODuntreated are the OD of the cells treated with compound or DMSO, respectively.

[12] = Cytotoxicity by WST-8, HMC3 cells; type: cell-based; conditions: human, 95% CI in brackets
Experimental: as §5

[13] = Cytotoxicity by WST-8, C6/36 cells; type: cell-based; conditions: Aedes albopictus, 95% CI in brackets
Experimental: as §5

[14] = Cytotoxicity by WST-8, A549 cells; type: cell-based; conditions: human, 95% CI in brackets
Experimental: as §5

ZIKV^Ug = assay: microbe, parasite or virus in culture; type: cell-based; conditions: Zika virus; ZIKV^Ug (Huh-7); 95% CI in brackets
USUV = assay: microbe, parasite or virus in culture; type: cell-based; conditions: Usutu virus; USUV (Huh-7); 95% CI in brackets
WNV = assay: microbe, parasite or virus in culture; type: cell-based; conditions: West Nile virus; WNV (Huh-7); 95% CI in brackets
SARS-CoV-2^Mi = assay: microbe, parasite or virus in culture; type: cell-based; conditions: Severe acute respiratory syndrome coronavirus 2; SARS-CoV-2^Mi (Vero TMPRSS); 95% CI in brackets
CVB5 = assay: Plaque reduction assay, CVB5 on A549 cells; type: cell-based, Coxsackievirus B5; conditions: Enterovirus B, 95% CI in brackets
CHIKV = assay: Plaque reduction assay, CHIKV on Huh-7 cells; type: cell-based; conditions: Chikungunya virus, CHIKV (Huh-7), 95% CI in brackets
VSV = assay: microbe, parasite or virus in culture; type: cell-based; conditions: Vesicular stomatitis virus, Huh-7
VV-IND-G = assay: microbe, parasite or virus in culture; type: cell-based, Vaccinia virus recombinant for VSV-Indiana G protein; conditions: Orthopoxvirus vaccinia, Huh-7
HSV2 = assay: Plaque reduction assay, HSV2 on A549 cells; type: cell-based, herpes simplex virus 2; conditions: Human alphaherpesvirus 2
IAV = assay: microbe, parasite or virus in culture; type: cell-based; conditions: Influenza A virus, MDCK
TOSV = assay: Plaque reduction assay, TOSV on VeroE6 cells; type: cell-based; conditions: Toscana virus, Vero C1008
ZIKV^Br [15] = assay: Synergism between PS1097 and SOF, ZIKV^Br yield; type: cell-based, Zika virus
Experimental: as §4, with “score). (I) Three‐dimensional surface plot representing synergy score (Z axis) for each compound combination.” for “score).”

ZIKV^Br [16] = system: ZIKV^Br
in vitro = conditions: simian
RTN4 = assay: Western blot of ER proteins in Huh-7 cells: RTN4; conditions: 6 μM PS1097, 48 h
FAM134B = assay: Western blot of ER proteins in Huh-7 cells: FAM134B; conditions: 6 μM PS1097, 48 h
TMEM41B = assay: Western blot of ER proteins in Huh-7 cells: TMEM41B; conditions: 6 μM PS1097, 48 h
[17] = Zika virus, Huh-7, 48 h, ZIKV^Br on Huh-7 cells, viral yield reduction, 48 h, 95% confidence interval in brackets
[18] = Zika virus, Huh-7, read-out: EC50 ZIKV, Table S2, this paper data, Huh-7 cells, Na = no detected antiviral activity

## O=c1nc(NO)ccn1[C@@H]1O[C@H](CO)[C@@H](O)[C@H]1O [EIDD-1931, β‐D‐N4‐hydroxycytidine, reference compound]
ZIKV^Br [1]; Table S2, this paper data, Huh-7 cells, Na = no detected antiviral activity, read-out: EC50 ZIKV
  EC50: 1.7 µM
Huh-7 cells
  CC50: 148 µM

## NC(=O)c1ncn([C@@H]2O[C@H](CO)[C@@H](O)[C@H]2O)n1 [RBV, 1‐(b‐D‐ribofuranosyl)‐1H‐1,2,4‐triazole‐3‐carboxamide, reference compound]
ZIKV^Br [1]; Zika virus, ZIKV^Br on Huh-7 cells, viral yield reduction, 48 h, 95% confidence interval in brackets, read-out: EC50
  EC50: 8.8 µM
[2]
  CC50 at 48 h: 144 µM

## CC(C)OC(=O)[C@H](C)N[P@](=O)(OC[C@H]1O[C@@H](n2ccc(=O)[nH]c2=O)[C@](C)(F)[C@@H]1O)Oc1ccccc1 [SOF, Sofosbuvir, reference compound]
ZIKV^Br [1]; [17]
  EC50: 1.5 µM
ZIKV^Br [1]; [18]
  EC50: 1.53 µM
ZIKV NS5 [3]
  ZIKV protein expression (NS5, western blot): completely abolished protein synthesis
ZIKV NS5 [4]
  ZIKV protein content (NS5, western blot): no effect on viral protein content
ZIKV^Br [5]
  Time of addition giving the strongest inhibition: 0–6 h p.i.
[2]
  CC50 at 48 h: 282 µM

## CC(C)c1nc2cc3cccnc3c(Cl)c2[nH]c1=O [PS462]
ZIKV^Br [1]; [17]
  EC50: > 100 µM
ZIKV^Br [1]; [18]
  EC50: 100 µM
BVDV
  EC50: 5 µM
Vero76
  CC50: > 100 µM
[2]
  CC50 at 48 h: 294 µM

## Cn1c(=O)c(-c2cccs2)nc2c(Cl)c3ncccc3cc21 [PS1240]
ZIKV^Br [1]; [17]
  EC50: 2.06 µM
BVDV
  EC50: 2 µM
Vero76
  CC50: > 100 µM
[2]
  CC50 at 48 h: 293 µM

## O=c1[nH]c2cc3cccnc3c(Cl)c2nc1-c1cccs1 [PS1097, 5‐chloro‐3‐(thiophen‐2‐yl) pyrido[2,3‐g] quinoxalin‐2(1H)‐one]
ZIKV^Br [1]; ZIKV^Br on Huh-7 cells, viral yield reduction, 48 h, 95% confidence interval in brackets
  EC50: 0.69 µM
ZIKV^Br [1]; [17]
  EC50: 0.6 µM
ZIKV^Br [1]; Zika virus, Huh-7, summary value of the discussion for Flaviviruses, read-out: EC50 against Flaviviruses
  EC50: ~0.7 µM
ZIKV^Br [6]
  EC50: 1.34 µM
ZIKV^Br [7]
  EC50: 2.66 µM
ZIKV^Br [8]
  EC50: > 100 µM
ZIKV^Br [9]
  EC50: 5.51 µM
ZIKV^Br [10]
  EC50: 44.6 µM
[11]; VeroE6 cells, VeroE6 cells (TOSV row of Table 2)
  CC50 at 48 h: 575 µM
[11]; VeroE6 cells (ZIKV^Br row of Table 2)
  CC50 at 48 h: 126 µM
[12]
  CC50 at 48 h: 294 µM
[13]
  CC50 at 48 h: 150 µM
[14]; A549 cells (CVB5 and HSV2 rows of Table 2)
  CC50 at 48 h: 218 µM
[14]; A549 cells (ZIKV^Br row of Table 2)
  CC50 at 48 h: 130 µM
ZIKV^Ug
  EC50: 1.29 µM
USUV
  EC50: 0.86 µM
WNV
  EC50: 1.15 µM
SARS-CoV-2^Mi
  EC50: 0.1 µM
CVB5
  EC50: 4.47 µM
CHIKV
  EC50: 4.4 µM
VSV
  EC50: > 50 µM
VV-IND-G
  EC50: 1.73 µM
HSV2
  EC50: > 50 µM
IAV
  EC50: > 50 µM
TOSV
  EC50: > 50 µM
ZIKV NS5 [3]
  ZIKV protein expression (NS5, western blot): downregulated viral protein expression
ZIKV NS5 [4]
  ZIKV protein content (NS5, western blot): consistently reduced protein levels
ZIKV^Br [5]; Huh-7, ZIKV^Br MOI 1, 10x EC50 (6 μM)
  Time of addition up to which viral protein expression is suppressed: up to 12 h p.i.
ZIKV^Br [5]
  Time of addition giving the strongest inhibition: 0–6 h p.i.
ZIKV^Br [15]; combined treatment PS1097 2.0–0.125 μM with SOF 5.0–0.39 μM, 48 h p.i., SynergyFinder
  Interaction of PS1097 with SOF (synergy): No synergistic effects
ZIKV^Br [15]; combined treatment, highest concentrations (PS1097 up to 2 μM, SOF up to 5 μM)
  Interaction of PS1097 with SOF at the highest concentrations: slight antagonistic effect
ZIKV^Br [16]; ZIKV^Br passaged weekly on Huh-7 from 0.6 μM PS1097, at least four attempts
  Selection of resistant ZIKV variants: no resistant strains
ZIKV^Br [16]; ZIKV^Br passaged weekly on Huh-7 in the presence of PS1097
  Passage at which no viral yield was found: 9 passage
BVDV
  EC50: 5 µM
Vero76
  CC50: > 100 µM
In vitro
  CC50: 86.2 µM
In vitro; CC50, Vero TMPRSS cells (SARS-CoV-2^Mi row of Table 2), 95% CI in brackets
  CC50: 436 µM
[2]
  CC50 at 48 h: 229 µM
RTN4
  RTN4 protein content (western blot): virtually unchanged
FAM134B
  FAM134B protein content (western blot): virtually unchanged
TMEM41B
  TMEM41B protein content (western blot): virtually unchanged
